Data as given in PMC11233931, “Remodeling tumor‐associated macrophage for anti‐cancer effects by rational design of irreversible inhibition of mitogen‐activated protein kinase‐activated protein kinase 2” (MedComm, 2024).

Tests used:
Assay in all cases: Eurofins kinase selectivity profile against 380 other human recombinant kinases (Table S2)
Assay type in all cases: biochemical
[1] = molecular target: T1, 380 human recombinant protein kinases (Homo sapiens, UniProt O43353); details: RIPK2(h), read-out: Inhibition rate
T1 construct: purchased Eurofins (Celle Lévescault)
How it was run: (§1)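 Off-target profiling: one compound assayed by a commercial provider over 380 recombinant human protein kinases at various concentrations.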

[2] = molecular target: T2, 380 human recombinant protein kinases (Homo sapiens, UniProt O60285); details: ARK5(h), read-out: Inhibition rate
T2 construct: purchased Eurofins (Celle Lévescault)
T2 sequence (O60285 1-661): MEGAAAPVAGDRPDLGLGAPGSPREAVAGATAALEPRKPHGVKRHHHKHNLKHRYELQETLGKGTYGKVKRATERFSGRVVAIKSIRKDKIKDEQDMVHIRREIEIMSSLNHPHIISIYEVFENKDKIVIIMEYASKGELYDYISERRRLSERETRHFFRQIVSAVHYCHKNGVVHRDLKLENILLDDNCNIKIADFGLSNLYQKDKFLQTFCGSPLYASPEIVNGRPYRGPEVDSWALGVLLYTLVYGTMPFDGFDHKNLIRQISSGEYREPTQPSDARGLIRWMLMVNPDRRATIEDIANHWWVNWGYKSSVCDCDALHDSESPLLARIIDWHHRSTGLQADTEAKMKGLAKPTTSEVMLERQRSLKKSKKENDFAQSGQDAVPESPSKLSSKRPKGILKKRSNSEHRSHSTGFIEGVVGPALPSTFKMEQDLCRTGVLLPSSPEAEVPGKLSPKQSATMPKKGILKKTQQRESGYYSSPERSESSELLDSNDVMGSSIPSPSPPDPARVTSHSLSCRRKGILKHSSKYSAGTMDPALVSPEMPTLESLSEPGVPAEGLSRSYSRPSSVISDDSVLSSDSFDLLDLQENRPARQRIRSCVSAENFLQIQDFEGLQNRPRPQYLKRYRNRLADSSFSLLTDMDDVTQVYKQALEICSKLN
How it was run: as §1

[3] = molecular target: T3, 380 human recombinant protein kinases (Homo sapiens, UniProt O95747); details: OSR1(h), read-out: Inhibition rate
T3 construct: purchased Eurofins (Celle Lévescault)
How it was run: as §1

[4] = molecular target: T4, 380 human recombinant protein kinases (Homo sapiens, UniProt O95819); details: MAP4K4(h), read-out: Inhibition rate
T4 construct: purchased Eurofins (Celle Lévescault)
How it was run: as §1

[5] = molecular target: T5, 380 human recombinant protein kinases (Homo sapiens, UniProt P42680); details: Tec(h) activated, read-out: Inhibition rate (%)
T5 construct: purchased Eurofins (Celle Lévescault)
T5 sequence (P42680 1-631): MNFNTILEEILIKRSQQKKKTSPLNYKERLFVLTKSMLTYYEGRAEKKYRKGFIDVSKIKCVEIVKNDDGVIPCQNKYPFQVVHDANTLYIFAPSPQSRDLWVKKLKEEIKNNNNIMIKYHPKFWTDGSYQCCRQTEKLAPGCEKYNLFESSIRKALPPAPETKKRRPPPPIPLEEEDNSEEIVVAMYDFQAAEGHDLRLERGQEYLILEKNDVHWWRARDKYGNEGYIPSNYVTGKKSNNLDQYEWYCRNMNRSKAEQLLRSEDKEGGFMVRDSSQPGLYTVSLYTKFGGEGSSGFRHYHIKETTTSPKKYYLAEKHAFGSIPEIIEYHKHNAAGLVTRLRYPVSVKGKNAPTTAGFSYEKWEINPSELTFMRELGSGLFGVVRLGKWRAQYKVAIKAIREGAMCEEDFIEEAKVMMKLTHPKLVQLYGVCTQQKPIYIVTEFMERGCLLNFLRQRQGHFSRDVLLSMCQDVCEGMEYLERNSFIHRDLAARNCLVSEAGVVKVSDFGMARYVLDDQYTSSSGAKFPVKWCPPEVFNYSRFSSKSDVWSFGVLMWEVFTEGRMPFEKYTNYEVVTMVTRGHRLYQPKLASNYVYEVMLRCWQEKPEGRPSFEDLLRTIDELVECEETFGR
How it was run: as §1

[6] = molecular target: T6, 380 human recombinant protein kinases (Homo sapiens, UniProt P50750); details: CDK9/cyclin T1(h), read-out: Inhibition rate
T6 construct: purchased Eurofins (Celle Lévescault)
How it was run: as §1

[7] = molecular target: T7, 380 human recombinant protein kinases (Homo sapiens, UniProt Q13557); details: CaMKIIδ(h), read-out: Inhibition rate
T7 construct: purchased Eurofins (Celle Lévescault)
How it was run: as §1

[8] = molecular target: T8, 380 human recombinant protein kinases (Homo sapiens, UniProt Q15349); details: Rsk3(h), read-out: Inhibition rate (%)
T8 construct: purchased Eurofins (Celle Lévescault)
How it was run: as §1

[9] = molecular target: T9, 380 human recombinant protein kinases (Homo sapiens, UniProt Q92918); details: HPK1(h), read-out: Inhibition rate
T9 construct: purchased Eurofins (Celle Lévescault)
How it was run: as §1

T1 sequence (O43353 whole entry): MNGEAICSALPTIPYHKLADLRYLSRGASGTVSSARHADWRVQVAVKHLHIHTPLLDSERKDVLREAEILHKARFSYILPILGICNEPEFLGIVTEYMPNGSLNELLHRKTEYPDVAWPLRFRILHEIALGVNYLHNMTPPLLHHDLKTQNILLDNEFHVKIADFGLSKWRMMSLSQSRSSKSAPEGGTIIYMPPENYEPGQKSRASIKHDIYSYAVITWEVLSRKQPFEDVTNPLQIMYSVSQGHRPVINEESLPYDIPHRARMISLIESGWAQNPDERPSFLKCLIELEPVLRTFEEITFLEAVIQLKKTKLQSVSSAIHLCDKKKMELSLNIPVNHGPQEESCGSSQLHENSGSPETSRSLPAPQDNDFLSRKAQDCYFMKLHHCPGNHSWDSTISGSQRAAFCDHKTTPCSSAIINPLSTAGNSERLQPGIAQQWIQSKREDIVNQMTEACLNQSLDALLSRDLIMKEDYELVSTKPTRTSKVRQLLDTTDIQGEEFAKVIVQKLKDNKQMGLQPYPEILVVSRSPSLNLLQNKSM
T6 sequence (P50750 whole entry): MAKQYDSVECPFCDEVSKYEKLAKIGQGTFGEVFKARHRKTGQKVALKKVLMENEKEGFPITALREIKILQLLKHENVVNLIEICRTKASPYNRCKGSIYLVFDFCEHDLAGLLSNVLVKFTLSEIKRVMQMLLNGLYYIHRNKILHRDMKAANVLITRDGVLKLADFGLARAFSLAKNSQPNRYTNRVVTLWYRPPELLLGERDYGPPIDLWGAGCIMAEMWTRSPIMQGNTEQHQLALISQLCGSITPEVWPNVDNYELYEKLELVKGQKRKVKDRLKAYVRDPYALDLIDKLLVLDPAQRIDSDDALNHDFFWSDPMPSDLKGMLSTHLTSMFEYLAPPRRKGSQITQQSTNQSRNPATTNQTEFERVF
T7 sequence (Q13557 whole entry): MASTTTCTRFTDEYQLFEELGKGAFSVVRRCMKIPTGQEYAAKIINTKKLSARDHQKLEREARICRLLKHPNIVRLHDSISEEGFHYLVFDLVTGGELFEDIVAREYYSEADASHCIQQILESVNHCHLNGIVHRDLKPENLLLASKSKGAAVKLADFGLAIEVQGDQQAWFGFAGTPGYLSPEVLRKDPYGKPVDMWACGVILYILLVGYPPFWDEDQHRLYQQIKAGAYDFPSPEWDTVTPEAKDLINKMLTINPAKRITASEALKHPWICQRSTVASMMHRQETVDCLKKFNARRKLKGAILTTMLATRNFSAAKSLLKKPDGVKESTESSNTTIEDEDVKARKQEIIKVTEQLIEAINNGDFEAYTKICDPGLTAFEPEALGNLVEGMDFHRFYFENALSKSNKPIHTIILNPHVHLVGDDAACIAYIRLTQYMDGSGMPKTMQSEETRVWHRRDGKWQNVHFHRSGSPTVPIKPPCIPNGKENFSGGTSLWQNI
T9 sequence (Q92918 whole entry): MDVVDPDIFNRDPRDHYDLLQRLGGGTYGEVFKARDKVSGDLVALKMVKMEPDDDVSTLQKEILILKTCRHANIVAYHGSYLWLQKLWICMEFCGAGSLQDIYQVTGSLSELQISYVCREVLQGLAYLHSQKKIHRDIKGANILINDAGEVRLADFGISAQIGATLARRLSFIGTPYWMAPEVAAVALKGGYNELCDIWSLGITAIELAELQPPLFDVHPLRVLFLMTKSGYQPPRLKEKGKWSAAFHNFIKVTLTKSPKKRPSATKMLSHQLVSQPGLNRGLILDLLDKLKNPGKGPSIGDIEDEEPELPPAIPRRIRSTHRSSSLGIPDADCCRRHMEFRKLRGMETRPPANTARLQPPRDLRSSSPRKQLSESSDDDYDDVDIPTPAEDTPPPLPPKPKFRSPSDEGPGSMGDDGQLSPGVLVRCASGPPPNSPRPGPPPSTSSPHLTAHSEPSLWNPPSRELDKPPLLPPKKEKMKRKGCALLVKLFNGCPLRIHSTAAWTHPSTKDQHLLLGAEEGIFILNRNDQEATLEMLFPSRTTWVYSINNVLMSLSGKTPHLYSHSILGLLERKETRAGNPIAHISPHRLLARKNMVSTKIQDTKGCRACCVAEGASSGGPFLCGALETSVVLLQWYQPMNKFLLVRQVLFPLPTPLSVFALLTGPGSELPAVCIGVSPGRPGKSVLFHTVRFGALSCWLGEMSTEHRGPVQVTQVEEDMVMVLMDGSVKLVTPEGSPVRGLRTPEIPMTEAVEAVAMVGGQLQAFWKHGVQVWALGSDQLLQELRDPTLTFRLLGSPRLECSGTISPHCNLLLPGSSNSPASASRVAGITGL
T4 sequence (O95819 whole entry): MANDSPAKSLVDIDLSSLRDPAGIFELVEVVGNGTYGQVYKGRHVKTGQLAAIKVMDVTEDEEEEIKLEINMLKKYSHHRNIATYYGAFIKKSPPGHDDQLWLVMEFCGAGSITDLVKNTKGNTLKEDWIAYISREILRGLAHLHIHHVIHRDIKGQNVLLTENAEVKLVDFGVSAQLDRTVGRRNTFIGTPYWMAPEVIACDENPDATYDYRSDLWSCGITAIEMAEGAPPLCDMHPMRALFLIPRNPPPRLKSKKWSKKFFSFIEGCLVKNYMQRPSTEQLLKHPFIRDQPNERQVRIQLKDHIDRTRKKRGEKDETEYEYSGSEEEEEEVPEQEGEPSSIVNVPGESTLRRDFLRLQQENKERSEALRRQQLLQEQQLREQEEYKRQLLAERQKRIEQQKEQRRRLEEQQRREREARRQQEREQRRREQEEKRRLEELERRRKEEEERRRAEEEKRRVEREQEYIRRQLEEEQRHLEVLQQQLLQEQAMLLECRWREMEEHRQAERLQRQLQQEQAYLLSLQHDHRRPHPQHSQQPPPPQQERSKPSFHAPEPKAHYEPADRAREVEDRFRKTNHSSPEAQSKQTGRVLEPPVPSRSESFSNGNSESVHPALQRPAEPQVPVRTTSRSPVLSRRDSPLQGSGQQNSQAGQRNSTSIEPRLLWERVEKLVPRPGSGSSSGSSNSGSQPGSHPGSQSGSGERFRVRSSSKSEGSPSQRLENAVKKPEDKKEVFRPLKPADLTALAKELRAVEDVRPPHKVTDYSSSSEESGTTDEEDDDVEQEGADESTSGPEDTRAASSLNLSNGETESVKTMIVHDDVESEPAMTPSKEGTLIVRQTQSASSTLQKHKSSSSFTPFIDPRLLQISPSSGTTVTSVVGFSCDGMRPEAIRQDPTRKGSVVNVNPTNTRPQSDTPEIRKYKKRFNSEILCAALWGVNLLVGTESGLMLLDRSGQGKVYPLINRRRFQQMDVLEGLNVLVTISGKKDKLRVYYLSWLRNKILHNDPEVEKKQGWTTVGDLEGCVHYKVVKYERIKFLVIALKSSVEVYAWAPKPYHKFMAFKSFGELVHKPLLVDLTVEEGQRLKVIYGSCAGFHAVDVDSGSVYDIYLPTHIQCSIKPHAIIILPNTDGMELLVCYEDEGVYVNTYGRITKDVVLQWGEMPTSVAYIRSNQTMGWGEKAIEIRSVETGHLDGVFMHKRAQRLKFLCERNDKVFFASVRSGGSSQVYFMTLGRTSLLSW
T8 sequence (Q15349 whole entry): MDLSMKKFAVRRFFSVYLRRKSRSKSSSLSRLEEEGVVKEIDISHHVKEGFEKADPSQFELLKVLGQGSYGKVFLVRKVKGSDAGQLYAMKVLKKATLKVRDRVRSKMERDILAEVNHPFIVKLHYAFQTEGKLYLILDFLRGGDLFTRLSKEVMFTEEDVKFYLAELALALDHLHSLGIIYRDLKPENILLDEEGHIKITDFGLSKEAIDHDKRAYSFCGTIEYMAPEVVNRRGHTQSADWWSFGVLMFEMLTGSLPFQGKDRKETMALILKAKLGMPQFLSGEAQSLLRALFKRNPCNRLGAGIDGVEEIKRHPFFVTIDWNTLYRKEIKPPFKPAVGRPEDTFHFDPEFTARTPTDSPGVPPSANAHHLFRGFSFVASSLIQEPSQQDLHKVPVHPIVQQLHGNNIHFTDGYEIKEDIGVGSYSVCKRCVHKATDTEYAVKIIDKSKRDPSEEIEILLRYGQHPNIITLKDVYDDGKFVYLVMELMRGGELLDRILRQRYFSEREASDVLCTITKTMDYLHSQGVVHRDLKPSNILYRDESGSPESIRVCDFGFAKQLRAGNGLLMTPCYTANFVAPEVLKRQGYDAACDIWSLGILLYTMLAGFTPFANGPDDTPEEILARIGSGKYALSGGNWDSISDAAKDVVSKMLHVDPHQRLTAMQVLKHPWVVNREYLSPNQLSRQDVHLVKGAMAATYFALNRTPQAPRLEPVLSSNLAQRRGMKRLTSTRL
T3 sequence (O95747 whole entry): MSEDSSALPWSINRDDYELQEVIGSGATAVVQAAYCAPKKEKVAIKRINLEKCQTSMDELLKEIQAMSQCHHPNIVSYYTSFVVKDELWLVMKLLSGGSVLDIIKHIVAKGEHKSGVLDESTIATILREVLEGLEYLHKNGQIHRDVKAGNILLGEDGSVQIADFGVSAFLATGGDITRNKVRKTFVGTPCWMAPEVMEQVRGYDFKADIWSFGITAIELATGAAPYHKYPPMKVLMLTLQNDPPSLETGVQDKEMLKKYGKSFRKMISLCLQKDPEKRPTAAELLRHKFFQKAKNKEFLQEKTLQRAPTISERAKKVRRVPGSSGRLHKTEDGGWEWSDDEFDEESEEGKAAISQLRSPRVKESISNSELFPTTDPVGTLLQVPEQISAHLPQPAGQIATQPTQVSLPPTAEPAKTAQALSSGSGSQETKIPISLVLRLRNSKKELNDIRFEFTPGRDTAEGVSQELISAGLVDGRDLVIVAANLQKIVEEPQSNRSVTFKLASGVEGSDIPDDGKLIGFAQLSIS

Structure (SMILES): C=CC(=O)Nc1cc(-c2cc(-c3cc4c([nH]3)CCNC4=O)ccn2)ccc1OC(F)(F)F [compound 11]
- inhibition at 0.01 µM ([1]; 10 nM): 11%
- inhibition at 0.1 µM ([1]; 100 nM): 46%
- inhibition at 1 µM ([1]; 1000 nM): 88%
- inhibition at 0.01 µM ([2]; 10 nM): -2%
- inhibition at 0.1 µM ([2]; 100 nM): 14%
- inhibition at 1 µM ([2]; 1000 nM): 28%
- inhibition at 0.01 µM ([3]; 10 nM): -1%
- inhibition at 0.1 µM ([3]; 100 nM): 5%
- inhibition at 1 µM ([3]; 1000 nM): 11%
- inhibition at 0.01 µM ([4]; 10 nM): -11%
- inhibition at 0.1 µM ([4]; 100 nM): -1%
- inhibition at 1 µM ([4]; 1000 nM): 33%
- inhibition at 0.01 µM ([5]; 10 nM): 8%
- inhibition at 0.1 µM ([5]; 100 nM): 11%
- inhibition at 1 µM ([5]; 1000 nM): 17%
- inhibition at 0.01 µM ([6]; 10 nM): 8%
- inhibition at 0.1 µM ([6]; 100 nM): 2%
- inhibition at 1 µM ([6]; 1000 nM): 6%
- inhibition at 0.01 µM ([7]; 10 nM): -7%
- inhibition at 0.1 µM ([7]; 100 nM): 11%
- inhibition at 1 µM ([7]; 1000 nM): 20%
- inhibition at 0.01 µM ([8]; 10 nM): -9%
- inhibition at 0.1 µM ([8]; 100 nM): 14%
- inhibition at 1 µM ([8]; 1000 nM): 16%
- inhibition at 0.01 µM ([9]; 10 nM): -8%
- inhibition at 0.1 µM ([9]; 100 nM): -15%
- inhibition at 1 µM ([9]; 1000 nM): 1%
